For series [1], the system named is human breast cancer cell SK-BR-3. As to the kind of experiment: Cytotoxicity test of conjugate LDC10B. The format is cell-based. The following applies: SK-BR-3, Incubation Time 30 min. As to the method:
(§1) Culture medium: RPMI 1640 Medium, no folic acid
(§2) 1) human nasopharyngeal cancer cell line KB, melanoma cell line A375, human lung cancer cell H1299, chronic myeloid leukemia cell line K562, human lung cancer cell H460, ovarian cancer cell SKOV3, breast cancer cell line HCC1954, human gastric cancer cell N87, and human breast cancer cell SK-BR-3 were incubated at 37° C., 5% CO2 in RPMI 1640 medium containing 10% fetal bovine serum, the cells were passaged every 2-3 days.
(§3) 2) human nasopharyngeal cancer cell line KB, melanoma cell line A375, human lung cancer cell H1299, chronic myeloid leukemia cell line K562, human lung cancer cell H460, ovarian cancer cell SKOV3, breast cancer cell line HCC1954, human gastric cancer cell N87, and human breast cancer cell SK-BR-3 were plated at 1×10^3 cells per well (96-well plate) and incubated for 8-12 h at 37° C., 5% CO2.
(§4) 3) Stock solutions of LDC conjugates or controls were prepared in PBS solution. 100 μL/well of serially diluted LDC conjugates or controls was added to the test cells in the plates and incubated for 15-30 min at 37° C., 5% CO2. The culture medium in the wells was then removed by aspiration and the test cells were incubated in fresh culture medium without conjugates (150 μL/well) for 2-3 days at 37° C., 5% CO2.
(§5) 4) CellTiter 96® Aqueous One Solution Cell Proliferation Assay (Promega) was added to each well to measure the amount of […] cells, and each plate was incubated in an incubator for 1 h at 37° C., 5% CO2.
(§6) 5) Each plate was read at 490 nm on a microplate reader, and the cell survivals were compared for test cells with or without the treatment of LDC conjugates. The LDC drug concentrations that are required for 50% cell death (IC50 values) were determined.

Series [2] concerns human nasopharyngeal cancer cell line KB. The series can be described thus: Cytotoxicity test of conjugate LDC10B. Format: cell-based. The following applies: Incubation Time 15 min. As for the experimental part:
as §1, §2, §3, §4, §5, §6

Series [3] relates to melanoma cell line A375. As to the kind of experiment: Cytotoxicity test of conjugate LDC10B. Format: cell-based. The following applies: A375, Incubation Time 15 min. As for the experimental part:
as §1, §2, §3, §4, §5, §6

Series [4] has as its system ovarian cancer cell SKOV3. The series can be described thus: Cytotoxicity test of conjugate LDC11B. Conditions: SKOV3, incubated 15-30 min, then 2-3 days. The format is cell-based, human. As to the method:
as §1
1) human lung cancer cell H460, ovarian cancer cell SKOV3, human embryonic kidney cell 293A were incubated at 37° C., 5% CO2 in RPMI 1640 medium containing 10% fetal bovine serum, the cells were passaged every 2-3 days.
2) human lung cancer cell H460, ovarian cancer cell SKOV3, human embryonic kidney cell 293A were plated at 1×10^3 cells per well (96-well plate) and incubated for 8-12 h at 37° C., 5% CO2.
(§7) 3) Stock solutions of LDC conjugates or control were prepared in PBS solution. 100 μL/well of serially diluted LDC conjugates or control was added to the cells in the plate and incubated for 15-30 min at 37° C., 5% CO2. The culture medium in the wells was then removed by aspiration and the cells were incubated in fresh culture medium without conjugates (150 μL/well) for 2-3 days at 37° C., 5% CO2.
(§8) 4) CellTiter 96® Aqueous One Solution Cell Proliferation Assay (Promega) was added to each well to measure the amount of […] cells, and the plate was incubated in an incubator for 1 h at 37° C., 5% CO2.
5) The plate was read at 490 nm on a microplate reader, and the cell survivals were compared for cells with or without the treatment of LDC conjugates. The LDC drug concentrations that are required for 50% cell death (IC50 values) were determined.

The test system of series [5] is human colon carcinoma HCT-116. The series can be described thus: Cytotoxicity test of conjugate LDC13B. The format is cell-based. Conditions: HCT-116, incubated 15-30 min, then 2-3 days. As for the experimental part: as §1
(§9) 1) human nasopharyngeal cancer cell line KB, human colon carcinoma HCT-116, human prostatic cancer cell PC-3, human gastric cancer cell line GTL-16, human endometrial cancer cell HEC-1A, and human gastric cancer cell N87 were incubated at 37° C., 5% CO2 in RPMI 1640 medium containing 10% fetal bovine serum, the cells were passaged every 2-3 days.
(§10) 2) human nasopharyngeal cancer cell line KB, human colon carcinoma HCT-116, human prostatic cancer cell PC-3, human gastric cancer cell line GTL-16, human endometrial cancer cell HEC-1A, and human gastric cancer cell N87 were plated at 1×10^3 cells per well (96-well plate) and incubated for 8-12 h at 37° C., 5% CO2.
as §7, §8
(§11) 5) the plate was read at 490 nm on a microplate reader, and the cell survivals were compared for cells with or without the treatment of LDC conjugates. The LDC drug concentrations that are required for 50% cell death (IC50 values) were determined.

In series [6] the test system is human endometrial cancer cell HEC-1A. The series can be described thus: Cytotoxicity test of conjugate LDC13B. Format: cell-based. The following applies: incubated 15-30 min, then 2-3 days. As to the method: as §1, §9, §10, §7, §8, §11
Series [7] has as its system human gastric cancer cell N87. As to the kind of experiment: Cytotoxicity test of conjugate LDC13B. The format is cell-based. Conditions: N87, incubated 15-30 min, then 2-3 days. As for the experimental part:
as §1, §9, §10, §7, §8, §11

Series [8] has as its system human gastric cancer cell line GTL-16. The series can be described thus: Cytotoxicity test of conjugate LDC13B. Format: cell-based. The following applies: GTL-16, incubated 15-30 min, then 2-3 days. As for the experimental part:
as §1, §9, §10, §7, §8, §11

Series [9] has as its system human nasopharyngeal cancer cell line KB. The series can be described thus: Cytotoxicity test of conjugate LDC13B. The format is cell-based. Conditions: KB, incubated 15-30 min, then 2-3 days. As for the experimental part:
as §1, §9, §10, §7, §8, §11

For series [10], the system named is human prostatic cancer cell PC-3. The series can be described thus: Cytotoxicity test of conjugate LDC13B. The format is cell-based. Conditions: PC-3, incubated 15-30 min, then 2-3 days. As for the experimental part:
as §1, §9, §10, §7, §8, §11

Series [11] deals with breast cancer cell line HCC1954. The series can be described thus: Cytotoxicity test of conjugate LDC10H. The format is cell-based, human. The following applies: HCC1954, incubated 15-30 min, then 2-3 days. As for the experimental part: as §1
(§12) 1) human lung cancer cell H1299, ovarian cancer cell SKOV3, breast cancer cell line HCC1954, and human lung cancer cell H460 were incubated at 37° C., 5% CO2 in RPMI 1640 medium containing 10% fetal bovine serum, the cells were passaged every 2-3 days.
(§13) 2) human lung cancer cell H1299, ovarian cancer cell SKOV3, breast cancer cell line HCC1954, and human lung cancer cell H460 were plated at 1×10^3 cells per well (96-well plate) and incubated for 8-12 h at 37° C., 5% CO2.
as §7, §8, §11

Series [12] deals with ovarian cancer cell SKOV3. The series can be described thus: Cytotoxicity test of conjugate LDC10H. The format is cell-based, human. Conditions: SKOV3, incubated 15-30 min, then 2-3 days. As to the method: as §1, §12, §13, §7, §8, §11
Series [13] concerns human lung cancer cell H460. The series can be described thus: Cytotoxicity test of conjugate LDC10BR. Format: cell-based. The following applies: H460, incubated 15-30 min, then 2-3 days. As to the method: as §1
(§14) 1) human nasopharyngeal cancer cell line KB, melanoma cell line A375, and human lung cancer cell H460 were incubated at 37° C., 5% CO2 in RPMI 1640 medium containing 10% fetal bovine serum, the cells were passaged every 2-3 days.
(§15) 2) human nasopharyngeal cancer cell line KB, melanoma cell line A375, and human lung cancer cell H460 were plated at 1×10^3 cells per well (96-well plate) and incubated for 8-12 h at 37° C., 5% CO2.
as §7, §8, §11

For series [14], the system named is human nasopharyngeal cancer cell line KB. As to the kind of experiment: Cytotoxicity test of conjugate LDC10BR. The following applies: incubated 15-30 min, then 2-3 days. The format is cell-based. As to the method:
as §1, §14, §15, §7, §8, §11

The subject of series [15] is melanoma cell line A375. As to the kind of experiment: Cytotoxicity test of conjugate LDC10BR. Format: cell-based. Conditions: A375, incubated 15-30 min, then 2-3 days. As to the method: as §1, §14, §15, §7, §8, §11

Square brackets hold non-standard residues; d marks the D form. Peptide text beside a SMILES is read from it. * marks the point of attachment. Dolaproine = CO[C@@H]([C@@H]1CCCN1)[C@@H](C)C(=O)O; Dil = CC[C@H](C)[C@H](NC)[C@@H](CC(=O)O)OC; X1 = C[C@@H](N*)[C@@H](O)c1ccccc1; NMeV = CN[C@H](C(=O)O)C(C)C

In the case of `CC[C@H](C)[C@@H]([C@@H](CC(=O)N1CCC[C@H]1[C@H](OC)[C@@H](C)C(=O)N[C@H](C)[C@@H](O)c1ccccc1)OC)N(C)C(=O)[C@@H](NC(=O)[C@@H](NC)C(C)C)C(C)C` [MMAE] (H-[NMeV]V[Dil][Dolaproine]-X1), the IC50 in series [1] came out at 0.52 nM; in series [2], 89 nM; in the series with melanoma cell line A375 [3], 100 nM; in [4], 0.44 nM; in [5], 12.7 nM; in series [6], 8.74 nM. Besides, the IC50 in series [7] is 3.83 nM; in [8] it was 6.38 nM; in series [9] it was 28.8 nM; in series [10], 12.8 nM; in series [11] it was 0.29 nM; in series [12], 0.49 nM. In addition, the IC50 in series [13] is 37 nM; in [14] it was 20 nM; in the series on melanoma cell line A375 [15], 85 nM.

Values taken from patent publication US11571480B2, “Multi-ligand drug conjugates and uses thereof” (priority 2015, dated 2023).
